Measurements from patent US9890168B2, “2,4-disubstituted 7H-pyrrolo[2,3-d]pyrimidine derivative, preparation method and medicinal use thereof” (Shanghai Haiyan Pharmaceutical Technology Co., Ltd., priority 2014, dated 2018).
Counter-ions that a name gives are not always drawn.

Legend:
[1] = test system: H1975 cells; test: Cell inhibitory activity by MTT assay, H1975 cells; format: cell-based; settings: for IC50: cell growth, MTT assay, 72 hours; for Selective inhibitory activity against cell growth [IC50 (A431 cell)/IC50 (H1975 cell)]: ratio of MTT IC50 values
[2] = test system: NIH3T3 cells; test: Toxicity test on NIH3T3 cells by MTT assay; format: cell-based
[3] = biological target: EGFR phosphorylation in A431 (EGFR wild-type) cells (Homo sapiens (Human), UniProt P00533); test: Inhibition of EGFR phosphorylation in A431 cells (ELISA); format: cell-based; settings: 1 h compound treatment, EGF stimulation, read-out: A431 cell (IC50/μM)
[4] = biological target: EGFR phosphorylation in H1975 (EGFR T790M mutant) cells (Homo sapiens (Human), UniProt P00533, L858R/T790M); test: Inhibition of EGFR phosphorylation in H1975 cells (ELISA); format: cell-based; settings: for IC50: EGFR phosphorylation, ELISA, 1 h compound treatment, read-out: H1975 cell (IC50/μM); for Selective inhibitory activity against targets at the cell level [IC50 (A431 cell)/IC50 (H1975 cell)]: ratio of ELISA IC50 values
[5] = biological target: wild-type EGFR kinase (Homo sapiens (Human), UniProt P00533); test: z'-lyte assay of inhibition activity on wild-type EGFR kinase; format: biochemical; settings: 10 μM ATP, 0.8 ng/μL kinase, read-out: EGFR WT (IC50/μM)
[6] = test system: A431 cells; test: Cell inhibitory activity by MTT assay, A431 cells; format: cell-based; settings: 72 hours
[7] = test system: T790M mutant cell line H1975; settings: background statement; cited from earlier work
[8] = Homo sapiens, A-431, cell growth

EGFR phosphorylation in H1975 (EGFR T790M mutant) cells, sequence (P00533 25-1210 T790M/L858R): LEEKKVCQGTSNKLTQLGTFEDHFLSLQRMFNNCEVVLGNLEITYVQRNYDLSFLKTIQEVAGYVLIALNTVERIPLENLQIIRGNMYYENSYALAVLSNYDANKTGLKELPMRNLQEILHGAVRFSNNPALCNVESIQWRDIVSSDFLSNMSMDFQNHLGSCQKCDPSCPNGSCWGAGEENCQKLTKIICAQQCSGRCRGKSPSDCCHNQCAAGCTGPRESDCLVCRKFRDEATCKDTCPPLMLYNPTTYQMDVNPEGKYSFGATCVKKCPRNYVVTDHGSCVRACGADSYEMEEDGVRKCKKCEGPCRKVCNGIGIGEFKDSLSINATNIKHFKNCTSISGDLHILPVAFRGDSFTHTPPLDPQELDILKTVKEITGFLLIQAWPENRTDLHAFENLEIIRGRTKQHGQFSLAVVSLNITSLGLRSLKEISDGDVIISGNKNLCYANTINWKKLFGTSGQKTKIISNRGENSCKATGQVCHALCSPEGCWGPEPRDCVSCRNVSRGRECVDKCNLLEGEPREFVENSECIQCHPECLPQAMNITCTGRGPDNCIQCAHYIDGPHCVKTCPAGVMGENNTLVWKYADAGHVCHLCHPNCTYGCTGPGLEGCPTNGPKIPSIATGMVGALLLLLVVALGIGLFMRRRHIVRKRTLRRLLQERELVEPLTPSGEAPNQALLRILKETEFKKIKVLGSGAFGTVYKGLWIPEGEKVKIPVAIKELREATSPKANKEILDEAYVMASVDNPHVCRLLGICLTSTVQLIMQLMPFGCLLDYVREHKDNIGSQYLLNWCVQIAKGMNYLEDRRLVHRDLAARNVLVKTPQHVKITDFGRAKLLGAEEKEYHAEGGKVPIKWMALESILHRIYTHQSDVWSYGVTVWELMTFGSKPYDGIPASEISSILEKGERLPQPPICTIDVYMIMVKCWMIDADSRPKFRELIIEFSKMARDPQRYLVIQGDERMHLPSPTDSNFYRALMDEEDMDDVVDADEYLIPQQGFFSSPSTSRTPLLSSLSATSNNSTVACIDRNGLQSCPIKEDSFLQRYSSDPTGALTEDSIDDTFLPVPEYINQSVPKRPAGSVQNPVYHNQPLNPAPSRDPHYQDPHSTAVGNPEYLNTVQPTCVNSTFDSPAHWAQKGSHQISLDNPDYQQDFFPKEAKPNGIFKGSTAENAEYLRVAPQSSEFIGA
EGFR phosphorylation in A431 (EGFR wild-type) cells, sequence (P00533 25-1210): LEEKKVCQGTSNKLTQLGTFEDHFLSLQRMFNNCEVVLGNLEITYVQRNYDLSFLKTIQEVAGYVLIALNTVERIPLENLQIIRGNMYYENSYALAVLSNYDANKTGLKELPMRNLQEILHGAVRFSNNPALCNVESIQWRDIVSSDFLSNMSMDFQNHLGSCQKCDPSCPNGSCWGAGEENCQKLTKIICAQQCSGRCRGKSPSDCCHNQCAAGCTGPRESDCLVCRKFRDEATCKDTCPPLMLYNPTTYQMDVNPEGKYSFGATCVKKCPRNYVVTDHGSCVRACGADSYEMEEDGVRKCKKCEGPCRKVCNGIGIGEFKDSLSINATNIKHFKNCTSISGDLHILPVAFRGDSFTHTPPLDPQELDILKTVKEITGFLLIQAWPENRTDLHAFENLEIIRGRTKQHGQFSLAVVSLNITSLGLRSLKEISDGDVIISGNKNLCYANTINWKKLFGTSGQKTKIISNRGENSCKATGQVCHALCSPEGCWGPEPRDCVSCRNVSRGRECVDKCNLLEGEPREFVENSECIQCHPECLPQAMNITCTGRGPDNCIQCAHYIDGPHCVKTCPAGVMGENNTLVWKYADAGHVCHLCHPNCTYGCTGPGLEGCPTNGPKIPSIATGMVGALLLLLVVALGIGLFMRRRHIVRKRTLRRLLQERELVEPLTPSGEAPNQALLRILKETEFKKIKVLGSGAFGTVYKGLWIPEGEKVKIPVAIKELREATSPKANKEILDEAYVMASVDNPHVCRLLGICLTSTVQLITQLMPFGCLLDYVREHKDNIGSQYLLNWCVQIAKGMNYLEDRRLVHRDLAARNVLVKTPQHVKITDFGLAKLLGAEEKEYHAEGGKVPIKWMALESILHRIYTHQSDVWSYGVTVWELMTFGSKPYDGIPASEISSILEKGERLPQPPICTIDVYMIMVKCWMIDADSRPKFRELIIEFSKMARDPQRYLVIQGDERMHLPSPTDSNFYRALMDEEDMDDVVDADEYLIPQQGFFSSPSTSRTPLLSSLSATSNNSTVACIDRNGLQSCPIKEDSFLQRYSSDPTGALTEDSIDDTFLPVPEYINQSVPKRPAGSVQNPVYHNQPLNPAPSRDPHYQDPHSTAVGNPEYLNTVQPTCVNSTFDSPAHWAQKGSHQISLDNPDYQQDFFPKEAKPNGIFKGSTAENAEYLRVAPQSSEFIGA
wild-type EGFR kinase, sequence (P00533 25-1210): as above

IC50 ([1]; Homo sapiens, NCI-H1975) | Selective inhibitory activity against cell growth [IC50 (A431 cell)/IC50 (H1975 cell)] [1] | IC50 [3] | IC50 [4] | Selective inhibitory activity against targets at the cell level [IC50 (A431 cell)/IC50 (H1975 cell)] [4] | IC50 [5] | IC50 [6, 8] | SMILES | IC50 ([2]; Mus musculus, NIH3T3, 72 hours) | IC50 [1] | IC50 ([2]; 72 hours) | IC50 ([6]; cell growth) | activity in the T790M mutant cell line H1975 [7]
0.088 µM | – | – | – | – | – | – | CN(C)C/C=C/C(=O)Nc1cc2c(Nc3ccc(F)c(Cl)c3)ncnc2cc1O[C@H]1CCOC1 [BIBW2992, reference compound] | 2.75 µM | – | – | – | –
0.043 µM | 36.3 | 3.67 µM | 0.112 µM | 32.7 | 0.393 µM | 1.56 µM | C=CC(=O)Nc1cc(Nc2nc(-c3cnn(C)c3)c3cc[nH]c3n2)c(OC)cc1N(C)CCN(C)C [Compound 1, N-(2-((2-(dimethylamino)ethyl)(methyl)amino)-4-methoxy-5-(4(1-methyl-1H-pyrazol-4-yl)-7H-pyrrolo[2,3-d]pyrimidn-2-ylamino)phenyl)acrylamide] | > 10 µM | – | – | – | –
0.143 µM | 28 | > 10 µM | 0.322 µM | 31 | > 1 µM | 4.01 µM | C=CC(=O)Nc1cc(Nc2nc(N3CCOCC3)c3cc[nH]c3n2)c(OC)cc1N(C)CCN(C)C [Compound 2, N-(2-((2-(dimethylamino)ethyl)(methyl)amino)-4-methoxy-5-(4-morpholino-7H-pyrrolo[2,3-d]pyrimidin-2-ylamino)phenyl)acrylamide] | > 10 µM | – | – | – | –
0.029 µM | 38.7 | 0.254 µM | 0.015 µM | 17 | 0.039 µM | 1.12 µM | C=CC(=O)Nc1cc(Nc2nc(-c3cnc4c(ccn4C)c3)c3cc[nH]c3n2)c(OC)cc1N(C)CCN(C)C [Compound 4, N-(2-((2-(dimethylamino)ethyl)(methyl)amino)-4-methoxy-5-(4-(1-methyl-1H-pyrrolo[2,3-b]pyridin-5-yl)-7H-pyrrolo[2,3-d]pyrimidin-2-ylamino)phenyl)acrylamide] | 2.09 µM | – | – | – | –
0.009 µM | 34.2 | 0.119 µM | 0.016 µM | 7.4 | 0.015 µM | 0.308 µM | C=CC(=O)Nc1cc(Nc2nc(-c3cn(C)c4ccccc34)c3cc[nH]c3n2)c(OC)cc1N(C)CCN(C)C [Compound 5, N-(2-((2-(dimethylamino)ethyl)(methyl)amino)-4-methoxy-5-(4-(1-methyl-1H-indol-3-yl)-7H-pyrrolo[2,3-d]pyrimidin-2-ylamino)phenyl)acrylamide] | 2.63 µM | – | – | – | –
0.079 µM | 22.8 | 1.67 µM | 0.096 µM | 17.4 | 0.347 µM | 1.8 µM | C=CC(=O)Nc1cc(Nc2nc(-c3cccnc3)c3cc[nH]c3n2)c(OC)cc1N(C)CCN(C)C [Compound 6, N-(2-((2-(dimethylamino)ethyl)(methyl)amino)-4-methoxy-5-(4-(pyridin-3-yl)-7H-pyrrolo[2,3-d]pyrimidin-2ylamino)phenyl)acrylamide] | 5.1 µM | – | – | – | –
0.225 µM | 7.5 | 1.87 µM | 0.204 µM | 9.2 | 0.315 µM | 1.69 µM | C=CC(=O)Nc1cc(Nc2nc(-c3ccccc3)c3cc[nH]c3n2)c(OC)cc1N(C)CCN(C)C [Compound 7, N-(2-((2-(dimethylamino)ethyl)(methyl)amino)-4-methoxy-5-(4-phenyl-7H-pyrrolo[2,3-d]pyrimidin-2-ylamino)phenyl)acrylamide] | 2.42 µM | – | – | – | –
0.3 µM | 14.5 | > 10 µM | 0.384 µM | >26 | > 1 µM | 4.34 µM | C=CC(=O)Nc1cc(Nc2nc(-c3cnn(C)c3)c3cc[nH]c3n2)c(OC)cc1N1CCC(N(C)C)CC1 [Compound 9, N-(2-(4-(dimethylamino)piperidin-1-yl)-4-methoxy-5-(4-(1-methyl-1H-pyrazol-4-yl)-7H-pyrrolo[2,3-D]pyrimidin-2-ylamino)phenyl)acrylamide] | > 10 µM | – | – | – | –
0.112 µM | 34 | 8.98 µM | 0.166 µM | 54.1 | – | 3.8 µM | C=CC(=O)Nc1cc(Nc2nc(-c3cnn(C)c3)c3cc[nH]c3n2)c(OC)cc1OCCN(C)C [Compound 10, N-(2-(2-(dimethylamino)etboxy)-4-methoxy-5-(4-(1-methyl-1H-pyrazol-4-yl)-7H-pyrrolo[2,3-d]pyrimidin-2-ylamino)phenyl)acrylamide] | > 10 µM | – | – | – | –
– | – | – | – | – | > 1 µM | – | C=CC(=O)Nc1cc(Nc2nc(-c3cnn(C)c3)c3cc[nH]c3n2)c(OC)cc1N1CCN(C)CC1 [Compound 12, N-(4-methoxy-5-(4-(1-methyl-1H-pyrazol-4-yl)-7H-pyrrolo[2,3-d]pyrimidin-2-ylamino)-2-(4-methylpiperazin-1-yl)phenyl)acrylamide] | – | – | – | – | –
0.531 µM | – | – | – | – | – | 3.04 µM | C=CC(=O)Nc1cc(Nc2nc(-c3cnn(C)c3)c3c(Cl)c[nH]c3n2)c(OC)cc1N1CCC(N(C)C)CC1 [Compound 13, N-(5-(5-chloro-4-(1-methyl-1H-pyrazol-4-yl)-7H-pyrrolo[2,3-d]pyrimidin-2-ylamino)-2-(4(dimethylamino)piperidin-1-yl)-4-methoxyphenyl)acrylamide] | > 10 µM | – | – | – | –
– | – | – | – | – | – | – | C#Cc1cccc(Nc2ncnc3cc(OCCOC)c(OCCOC)cc23)c1 [erlotinib] | – | – | – | – | greater than 3 uM
– | – | – | – | – | – | – | COc1cc2ncnc(Nc3ccc(F)c(Cl)c3)c2cc1OCCCN1CCOCC1 [gefitinib] | – | – | – | – | greater than 3 uM

SMILES | IC50 ([1]; Homo sapiens, NCI-H1975) | Selective inhibitory activity against cell growth [IC50 (A431 cell)/IC50 (H1975 cell)] [1] | IC50 [3] | IC50 [4] | Selective inhibitory activity against targets at the cell level [IC50 (A431 cell)/IC50 (H1975 cell)] [4] | IC50 [5] | IC50 [6, 8] | IC50 ([2]; Mus musculus, NIH3T3, 72 hours) | IC50 [1] | IC50 ([2]; 72 hours) | IC50 ([6]; cell growth) | activity in the T790M mutant cell line H1975 [7]
C=CC(=O)Nc1cc(Nc2nc(OC3CN(S(C)(=O)=O)C3)c3cc[nH]c3n2)c(OC)cc1N(C)CCN(C)C [Compound 3, N-(2-((2-(dimethylamino)ethyl)(methyl)amino)-4-methoxy-5-(4-(1-(methylsulfonyl)azetidin-3-yloxy)-7H-pyrrolo[2,3-d]pyrimidin-2-ylamino)phenyl)acryl amide] | – | 101 | 0.86 µM | 0.032 µM | 26.9 | 0.088 µM | – | – | 0.029 µM | > 10 µM | 2.93 µM | –
C=CC(=O)Nc1cc(Nc2nc(-c3cnn(C)c3)c3cc[nH]c3n2)c(OC)cc1N1CC(N(C)C)C1 [Compound 11, N-(2-(3-(dimethylamino)azetidin-1-yl)-4-methoxy-5-(4-(1-methyl-1H-pyrazol-4-yl)-7H-pyrrolo[2,3-d]pyrimidin-2-ylamino)phenyl)acrylamide Formate] | – | – | – | – | – | > 1 µM | – | – | – | – | – | –
